Common to all, as to type: cell-based, human
Series [1] deals with KSHV-infected DMVEC. Description: PMO antisense inhibition of KSHV-induced spindle cell and foci formation (Example 3). The note with it: for Extent of PMO-induced Inhibition of Spindle Cell Formation: KSHV-infected DMVEC loaded with gene-specific PMO antisense + EPEI; for Phenotype Inhibition (inhibition of spindle cell formation) / KSHV-induced spindle cell / foci formation (in words): KSHV-infected DMVEC; for Phenotype Inhibition (inhibition of spindle cell formation): gene-specific PMO antisense; for KSHV-induced spindle cell / foci formation (in words): PMO antisense, c-Kit: 1.25 nmol PMO + 2.5 μl EPEI per 35 mm dish. An excerpt: Antisense Gene Silencing using PMOs. […] Silencing of such genes precluded progression into the transformed phenotype when silencing occurred prior to transformation, or induced reversion to the normal state when silencing occurred after induction of the transformed state (see TABLE 2 below).
Introduction of antisense PMO into KSHV-infected DMVEC. Antisense PMO molecules, for delivery purposes, are typically converted to a paired duplex together with a partially complementary cDNA oligonucleotide in the weakly basic delivery reagent ethoxylated polyethylenimine (EPEI) (Summerton, supra). The anionic complex binds to the cell surface, is taken up by endocytosis and eventually released into the cytosol. A protocol for optimum uptake of antisense PMO in immortalized DMVEC was developed using a modification of the EPEI method. Briefly, uninfected, immortalized DMVECs were incubated for 3 hours at 37° C. with 0.6 nmol/well FITC-PMO complexed with EPEI according to the manufacturer's instructions (GeneTools, LLC, One Summerton Way, Philomath, Oreg. 97370) (e.g., 1.25 nMol oligomer with 2.5 μl EPEI reagent per 35 mm dish, allowing for sufficient antisense uptake without non-specific EPEI-induced toxicity). The PMOs were labeled with FITC to allow for monitoring of loading efficiency by fluorescence microscopy.
Specifically, DMVEC were infected with KSHV, plated in 35 mm dishes and allowed to grow to about 90% confluence. For treatment, KSHV-infected cells were treated with the anti-c-Kit PMO-antisense oligomer-EPEI delivery reagent complex and incubated for 3 hours at 37° C. in serum-free medium to allow for oligomer uptake. A titration experiment testing a range of different oligomer/EPEI volumes was used to determine that loading 1.25 nmol oligomer with 2.5 μl EPEI reagent per 35 mm dish allowed efficient antisense uptake without non-specific EPEI-induced toxicity. Control (mock-treated) DMVEC cultures were loaded with EPEI reagent and sterile water or sterile water alone. Upon removal of the oligomer-EPEI solution, cell monolayers were rinsed in serum-free medium fed with complete medium and examined daily for one week by phase microscopy for evidence of phenotypic change.

Series [2] deals with KSHV-infected DMVEC. The experiment in a line: XTT proliferation assay of PMO-loaded KSHV-infected DMVEC (Example 3). The note with it: PMO antisense silencing. The protocol: Proliferation assays, and loading of cells with PMOs. Proliferation of KSHV-infected DMVEC was quantified using an XTT (2,3-bis-(2-methoxy-4-nitro-5-sulfophenyl)-2H-tetrazolium-5-carboxanilide, disodium salt)-based assay. KSHV-infected cells were added to Primaria 96-well trays (Becton Dickinson) at 1×10^4 or 5×10^4 cells/well. XTT (Roche, Molecular Biochemicals, Indianapolis, Ind.) was added 48 hours later according to the manufacturer's instructions. Absorbance was read after 4 to 6 hours on a microplate reader.
Briefly, cells were plated in 96-well trays at a density approaching confluence (5×10^4 cells per well) in 100 μl of complete medium. PMOs were loaded the following day in a total of 100 μl (0.5 μl PMO, 0.5 μl EPEI, 49 μl H2O and 50 μl serum free medium) with reagent mixing as described by the manufacturer (GeneTools). Controls included a FITC PMO control oligonucleotide, EPEI only or H2O only. Each variable was performed in quadruplicate. Fresh complete medium was replaced 4 hours after loading. Cells were cultured for 4 days to allow for multi-layered cell growth post-confluence in the absence of any growth inhibition. XTT was added on day 4 of culture and the absorbance read 4 hrs later on a microplate reader. Cell proliferation (growth) values are given as percentage inhibition values, relative to cells without PMO, which are adjusted to 100%.
On the technique in general: Tetrazolium dyes change colour on reduction, which living cells bring about.

Series [3] has as its system KSHV-infected DMVEC. The experiment in a line: Morpholino treatment and focus inhibition assay (Example 5). The note with it: for Foci/spindle morpholigical inhibition: PMO-treated KSHV-infected DMVEC vs control PMO, repeated three times. The protocol: Morpholino Treatment and Focus Inhibition Assay. Phosphorodiamidate morpholino antisense oligonucleotides (PMO-AS) were designed and synthesized by Gene Tools LLC (Philomath, Oreg.) as a Special Delivery formulation, which pairs the morpholino with a partially complementary DNA oligo. A weakly basic delivery agent, Ethoxylated Polyethlyenimine (EPEI) is then used to deliver the anionic morpholino/DNA duplex into the cytosol. PMO-AS were received as sterile, lyophilized solids ([…]) that were solubilized in sterile water to obtain 0.5 mM stock solutions. To load a 35 mm dish of DMVEC at 90% confluence, 5 microl of stock solution was mixed with 5 microl of EPEI delivery solution in 590 μl H20 for 20 minutes at room temperature, and then mixed with 1.5 ml of serum-free RPMI medium. Endothelial growth media was removed from DMVEC, and replaced with the PMO-AS:EPEI:RPMI delivery solution for 3 hours in a 37° C. incubator. After incubation, cells were rinsed, complete endothelial growth medium was added and cells were cultured for up to 10 days without sub-culture, with media replacement every 48-72 hours. This protocol allows for the characteristic post-confluent growth and development of multi-layered spindle-cell aggregates (foci) in KSHV-infected cultures. Cells were monitored daily under the phase microscope to evaluate PMO-AS-inhibition of the development of these foci. At the conclusion of an assay, cells were fixed in 2% paraformaldehyde and stained with a MAB against CD31 (Dako; 1:100) followed by a goat-anti-mouse FITC second conjugate. Junctional staining of cells with CD31 accentuated the disorganized multi-layered nature of the spindle cell aggregates as composed to the flat, organized profile of contact-inhibited cells.
For these assays, KSHV-infected DMVEC monolayers were cultured to 90% confluence and then loaded with each PMO-AS, or maintained as unloaded controls. Cultures were observed daily until control cultures had developed prominent multi-layered aggregates of spindle cells. Typically this took 5-10 days with some variation between replicate experiments. Each experiment was performed at least three times and was performed with mock-infected as well as KSHV-infected DMVEC. As expected, mock-infected DMVEC maintained a quiescent monolayer at confluence, and PMO-AS treatment of uninfected cells occurred without any adverse effect. This observation allowed verification that none of the gene knockdown treatments induced non-specific toxicity in DMVEC. The majority of tested PMO-AS had no effect on the ability of KSHV-infected DMVEC to grow post-confluence and form disorganized, multi-layered foci (TABLE 2).

As for “ANGPTL2: PMO antisense to ANGPTL2, AGCATGTCACGCACAGTGGCCTCAT (SEQ ID NO:33) (all phosphorodiamidate morpholino (PMO); delivered paired with partially complementary DNA oligo (Special Delivery))”, in the series with KSHV-infected DMVEC [1], the “Extent of PMO-induced Inhibition of Spindle Cell Formation” value is on record as “intermediate”, the “Phenotype Inhibition (inhibition of spindle cell formation)” value (shortened to “Phenotype Inhibition”) is “Intermediate” and the “KSHV-induced spindle cell / foci formation (in words)” value was “intermediate inhibitory effects”.

As for “IFACTOR: PMO antisense to IFACTOR, AGCTTCATGTTGGAGGTGTTCG (SEQ ID NO:22) (all phosphorodiamidate morpholino (PMO); delivered paired with partially complementary DNA oligo (Special Delivery))”, in the series on KSHV-infected DMVEC [2], the “inhibition of KSHV-induced cellular proliferation (in words)” value is “relatively little or no significant inhibition”. Further, in the series on KSHV-infected DMVEC [1], the “Extent of PMO-induced Inhibition of Spindle Cell Formation” value is listed as “none”, the “Phenotype Inhibition” value is “None” and the “KSHV-induced spindle cell / foci formation (in words)” value is recorded as “little or no affect”.

Consider “IGFBP2: PMO antisense to IGFBP2, GGCAGCCCACTCTCTCGGCAGCATG (SEQ ID NO:16) (all phosphorodiamidate morpholino (PMO); delivered paired with partially complementary DNA oligo (Special Delivery))”, for which the “inhibition of KSHV-induced cellular proliferation (in words)” value in the series with KSHV-infected DMVEC [2] was “substantial inhibition”. Moreover, in the series with KSHV-infected DMVEC [1], the “Extent of PMO-induced Inhibition of Spindle Cell Formation” value is listed as “full”, the “Phenotype Inhibition” value was “Full” and the “KSHV-induced spindle cell / foci formation (in words)” value was “fully reversed spindle cell formation”. In addition, the Foci/spindle morpholigical inhibition entry in the series on KSHV-infected DMVEC [3] is reported as “Full”.

On to “INSR: PMO antisense to INSR, GGGTCTCCTCGGATCAGGCGCG (SEQ ID NO:20) (all phosphorodiamidate morpholino (PMO); delivered paired with partially complementary DNA oligo (Special Delivery))”, for which, in the series with KSHV-infected DMVEC [2], the “inhibition of KSHV-induced cellular proliferation (in words)” value is on record as “substantial inhibition”. For the same substance, in the series on KSHV-infected DMVEC [1], the “Extent of PMO-induced Inhibition of Spindle Cell Formation” value is “intermediate”, the “Phenotype Inhibition” value is given as “Intermediate” and the “KSHV-induced spindle cell / foci formation (in words)” value is recorded as “intermediate inhibitory effects”. Further, the “effect on phenotype (foci, spindle shape) in focus-inhibition assay (in words)” value in the series with KSHV-infected DMVEC [3] (PMO-AS, KSHV-infected DMVEC, 5-10 days) is listed as “marginal but reproducible effect on phenotype”. In addition, in the series with KSHV-infected DMVEC [3], the Foci/spindle morpholigical inhibition result is given as “Intermediate”.

For the substance “K1AA0367: PMO antisense to KIAA0367, GTCAGTTTACTCATGTCATCTATTG (SEQ ID NO:18) (all phosphorodiamidate morpholino (PMO); delivered paired with partially complementary DNA oligo (Special Delivery))”, the “inhibition of KSHV-induced cellular proliferation (in words)” value with KSHV-infected DMVEC [2] is on record as “substantial inhibition”. For the same substance, in the series on KSHV-infected DMVEC [1], the “Extent of PMO-induced Inhibition of Spindle Cell Formation” value is “intermediate”, the “Phenotype Inhibition” value was “Intermediate” and the “KSHV-induced spindle cell / foci formation (in words)” value is reported as “intermediate inhibitory effects”.

As to “LMO2: PMO antisense to LMO2, GCCGAGGACATTGGGGAGGGAGGCG (SEQ ID NO:23) (all phosphorodiamidate morpholino (PMO); delivered paired with partially complementary DNA oligo (Special Delivery, EPEI))”, in the series on KSHV-infected DMVEC [1], the “Extent of PMO-induced Inhibition of Spindle Cell Formation” value is “none” and the “KSHV-induced spindle cell / foci formation (in words)” value is on record as “little or no affect”. In addition, the Foci/spindle morpholigical inhibition entry in the series with KSHV-infected DMVEC [3] is recorded as “None”.

As for “LOX: PMO antisense to LOX, GGAGCACGGTCCAGGCGAAGCGCAT (SEQ ID NO:31) (all phosphorodiamidate morpholino (PMO); delivered paired with partially complementary DNA oligo (Special Delivery, EPEI))”, in the series with KSHV-infected DMVEC [1], the “Extent of PMO-induced Inhibition of Spindle Cell Formation” value is recorded as “full”, the “Phenotype Inhibition” value is reported as “Full” and the “KSHV-induced spindle cell / foci formation (in words)” value was “fully reversed spindle cell formation”.

On to “MFAP3: PMO antisense to MFAP3, TGAATAAGCAACAATGTAGCTTCAT (SEQ ID NO:24) (all phosphorodiamidate morpholino (PMO); delivered paired with partially complementary DNA oligo (Special Delivery, EPEI))”, for which the “inhibition of KSHV-induced cellular proliferation (in words)” value in the series with KSHV-infected DMVEC [2] was “relatively little or no significant inhibition”. In addition, in the series on KSHV-infected DMVEC [1], the “Extent of PMO-induced Inhibition of Spindle Cell Formation” value is given as “none”; the “Phenotype Inhibition” value is “no and None”; the “KSHV-induced spindle cell / foci formation (in words)” value was “little or no affect”. Besides, in the series with KSHV-infected DMVEC [3], the Foci/spindle morpholigical inhibition result is “None”.

Turning to “NOV: PMO antisense to NOV, AGCTCGTGCTCTGCACACTCTGCAT (SEQ ID NO:32) (all phosphorodiamidate morpholino (PMO); delivered paired with partially complementary DNA oligo (Special Delivery, EPEI))”, in the series with KSHV-infected DMVEC [1], the “Extent of PMO-induced Inhibition of Spindle Cell Formation” value was “full”, the “Phenotype Inhibition” value is given as “Full” and the “KSHV-induced spindle cell / foci formation (in words)” value is reported as “fully reversed spindle cell formation”.

Osteopontin: the “inhibition of KSHV-induced cellular proliferation (in words)” value in the series on KSHV-infected DMVEC [2] is “relatively little or no significant inhibition”. Further, the “Phenotype Inhibition” value in the series on KSHV-infected DMVEC [1] is on record as “None”. In addition, in the series with KSHV-infected DMVEC [3], the Foci/spindle morpholigical inhibition result was “None”.

Values taken from patent publication US20070072209A1, “Methods of treatment and diagnosis of Kaposi's sarcoma (KS) and KS related diseases” (priority 2005, published 2007).
